How the values were obtained:
[1] = tested on: macrophage Cx43 hemichannel activities, RAW 264.7 cells; assay: Lucifer Yellow dye uptake, hemichannel permeability, calcium-depleted; assay type: cell-based, murine; conditions: P5 20 μM, LPS 0.5 μg/ml, 16 h, LY 15 min, P < 0.05 versus +LPS
Description: Because connexon is the structural unit for both hemichannel (1 connexon) and gap junction (2 connexons from opposing cells), which are both permeable to similar molecular weight molecules, such as the Lucifer yellow (LY). Thus, the LY dye uptake could be used to determine the channel permeability of both hemichannel (as indicated by the rate of LY entry into the cells) and gap junction channels (as judged by the distance of intercellular LY diffusion). The LY dye uptake assay relied on the ability of this dye present in the extracellular milieu to cross the plasma membrane and became concentrated inside of the cell, which could be quantified by fluorescence microscopy. To determine the effects of Cx43 mimetic peptides on hemichannel permeability, RAW 264.7 cells were subjected to LPS stimulation (0.5 µg/ml, 16 h) before replacing the medium with fresh DMEM containing various Cx43 mimetic peptides, GAP26 (100 µM), TAT-GAP19 (200 µM) or P5 (20 µM). Following a brief incubation (15 min), EGTA (1 mM) was added to deplete free calcium prior to the addition of LY dye (1%). Fifteen min later, cells were fixed with 2% paraformaldehyde, and the number of LY-positive cells was counted. The ratio of LY-positive cells vs. total cell counts (DAPI staining) was used as the measurement of hemichannel permeability.

[2] = tested on: Panx1 hemichannel permeability, macrophages; assay: Lucifer Yellow dye uptake in presence of calcium (Panx1 hemichannel permeability); assay type: cell-based
[3] = tested on: Cx43 protein expression, NIH 3T3 fibroblasts; assay: Cx43 protein expression, Western blotting, NIH 3T3 cells; assay type: cell-based; conditions: prolonged incubation, data not shown
Protocol: The cellular levels of Cx43 and phosphor-PKR were determined by Western blotting analysis using an affinity-purified rabbit anti-Cx43 or anti-phospho-PKR (Thr^451) IgGs as previously described[9],[25],[53]. The levels of HMGB1 in the culture medium were determined by Western blotting analysis as described previously. The level of β-actin was used as a reference of total cellular proteins. Briefly, an equal volume of culture medium (conditioned by identical macrophage cell numbers) was harvested, and protein content was concentrated by ultrafiltration (with a molecular weight cutoff of 10.0 kDa), and then normalized to the same volume with a sample buffer. Proteins in equal sample volume were resolved on sodium dodecyl sulfate (SDS)-polyacrylamide gels, and transferred to polyvinylidene difluoride (PVDF) membranes. After blocking with 5% nonfat milk, the membrane was incubated with respective antibodies (anti-Cx43, 1:1000; anti-phospho-PKR, 1:1000; anti-HMGB1, 1:1,000; anti-β-actin. 1:5,000) overnight. Subsequently, the membrane was incubated with the appropriate secondary antibody, and the immunoreactive bands were visualized by chemiluminescence techniques.

[4] = tested on: HMGB1 release, RAW 264.7 cells; assay: HMGB1 release, Western blotting; assay type: cell-based, murine; conditions: LPS 0.5 µg/ml, 16 h, P < 0.05 versus +LPS
[5] = tested on: cytokines and chemokines, RAW 264.7 cells; assay: Cytokine antibody array; assay type: cell-based, murine; conditions: P5 10 μM, LPS 16 h, 62-cytokine antibody array
Protocol: Murine Cytokine Antibody Arrays (Cat. No. M0308003, RayBiotech Inc., Norcross, GA, USA), which respectively detect 62 cytokines on one membrane, were used to determine cytokine levels in macrophage-conditioned culture medium as previously described[51],[54]. Briefly, the membranes were sequentially incubated with equal volumes cell-conditioned culture medium (200 μl), primary biotin-conjugated antibodies, and horseradish peroxidase–conjugated streptavidin.

[6] = tested on: hepatic I/R injury, C57BL/6 mice; assay: Hepatic ischemia/reperfusion injury; assay type: in vivo, Male C57BL/6 mice; conditions: P5 10.0 mg/kg i.v. at onset of reperfusion; 60 min ischemia; 24 h after onset of ischemia; P < 0.05 versus saline (I/R)
Protocol: Male C57BL/6 mice (20–25 g) were subjected to hepatic ischemia/reperfusion by temporally clamping the hepatic artery and portal vein for 60 min, which typically produced ischemia in 70% of the liver. At the beginning of the reperfusion, 0.2 ml saline, P5 (10.0 mg/kg BW) was injected via the internal jugular vein. At 24 h after the onset of ischemia, animals were euthanized to harvest blood to measure serum levels of hepatic injury markers such as alanine aminotransferase (ALT) and aspartate aminotransferase (AST) using commercial kits.

[7] = target: T1, Cx43 EL1 peptide (Homo sapiens, UniProt P17302); assay: Surface Plasmon Resonance, Cx43 EL1 peptide; assay type: binding; conditions: synthetic full-length EL1 peptide, data not shown
T1 construct: synthetic full-length Cx43 EL1 or EL2 peptide as judged by the Surface Plasmon Resonance Analysis
T1 sequence (P17302 45-76 limits assumed): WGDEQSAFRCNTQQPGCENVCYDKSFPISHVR

## ENVCYD [P5, cysteine-containing Cx43 EL1 mimetic hexamer peptide, P5 (ENVCYD)]
[1]
  effect on endotoxin-induced hemichannel activities (LY dye uptake): significantly inhibited the endotoxin-induced elevation of hemichannel activities
[2]
  LY uptake in calcium-containing medium: did not alter macrophage LY uptake in calcium-containing medium
[3]
  Cx43 protein expression: did not alter Cx43 protein expression
[4]
  inhibition of LPS-induced HMGB1 release: significantly inhibited by P5 in a dose-dependent fashion
[5]
  other cytokines and chemokines: did not affect
[6]
  serum alanine aminotransferase (ALT): significant reduction of serum levels
  serum aspartate aminotransferase (AST): significant reduction of serum levels
  systemic release of LDH: significantly attenuated
[7]
  binding to Cx43 EL1 peptide: did not find evidence of P5 interacting

From publication PMC5760527, “Connexin 43 Hemichannel as a Novel Mediator of Sterile and Infectious Inflammatory Diseases” (Scientific Reports, 2018)
